Measured values published in patent US9980943B2, “Methods of treating muscular dystrophy” (BOARD OF REGENTS OF THE NEVADA SYSTEM OF HIGHER EDUCATION, …, priority 2013, dated 2018).

How the values were obtained:
Type in all cases: cell-based, mouse
[1] = tested on: α7 integrin (LacZ reporter in α7βgal+/− myoblasts); assay: Myoblast α7+/LacZ integrin FDG assay (Burkin assay in myoblasts, 96-well); conditions: α7+/LacZ myoblasts, 96-well
[2] = tested on: α7 integrin (LacZ reporter in α7+/LacZ myotubes); assay: Myotube α7 integrin FDG assay (Burkin assay in myotubes, 96-well); conditions: myotubes
[3] = tested on: β-galactosidase in CMV-LacZ C2C12 myoblasts; assay: CMV-LacZ secondary screen in C2C12 myoblasts (β-Gal stabilizing assay); conditions: CMV-LacZ C2C12 myoblasts
How it was run: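 β-gal stabilization was measured in C2C12 myoblasts or myotubes stably transfected with a CMV-driven LacZ construct, using the FDG β-gal assay. Compounds were tested in dose-response at 0.5, 1, 5, 10, 20 and 40 μM, with two replicates per point.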

[4] = tested on: β-galactosidase in CMV-LacZ C2C12 myotubes; assay: CMV-LacZ secondary screen in C2C12 myotubes (β-Gal stabilizing assay); conditions: C2C12 CMV-LacZ myotubes, fold relative to DMSO
How it was run: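 A secondary screen identifies compounds that stabilize β-gal independently of the native promoter, using CMV-LacZ C2C12 cells. Curves span 0.5–40 μM at six levels, in duplicate.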

## CCc1ccc(S(=O)(=O)NCCOc2cccc3cccnc23)cc1 [MLS001034810-01]
[1]; 0.5 uM
  Burkin Assay in Myoblasts, signal relative to DMSO: 1.021
[1]; 1 uM
  Burkin Assay in Myoblasts, signal relative to DMSO: 0.9975
[1]; 5 uM
  Burkin Assay in Myoblasts, signal relative to DMSO: 1.375
[1]; 10 uM
  Burkin Assay in Myoblasts, signal relative to DMSO: 1.191
[1]; 20 uM
  Burkin Assay in Myoblasts, signal relative to DMSO: 0.8996
[1]; 40 uM
  Burkin Assay in Myoblasts, signal relative to DMSO: 0.8407
[2]; 0.5 uM
  Burkin Assay in Myotubes, α7 integrin LacZ reporter signal relative to DMSO: 1.035
[2]; 1 uM
  Burkin Assay in Myotubes, α7 integrin LacZ reporter signal relative to DMSO: 1.07
[2]; 5 uM
  Burkin Assay in Myotubes, α7 integrin LacZ reporter signal relative to DMSO: 1.403
[2]; 10 uM
  Burkin Assay in Myotubes, α7 integrin LacZ reporter signal relative to DMSO: 1.165
[2]; 20 uM
  Burkin Assay in Myotubes, α7 integrin LacZ reporter signal relative to DMSO: 1
[2]; 40 uM
  Burkin Assay in Myotubes, α7 integrin LacZ reporter signal relative to DMSO: 0.7593
[3]; 0.5 uM
  CMV-LACZ in Myoblasts (β-galactosidase activity relative to DMSO): 0.9698
[3]; 1 uM
  CMV-LACZ in Myoblasts (β-galactosidase activity relative to DMSO): 0.9538
[3]; 5 uM
  CMV-LACZ in Myoblasts (β-galactosidase activity relative to DMSO): 1.0948
[3]; 10 uM
  CMV-LACZ in Myoblasts (β-galactosidase activity relative to DMSO): 0.9459
[3]; 20 uM
  CMV-LACZ in Myoblasts (β-galactosidase activity relative to DMSO): 1.1193
[3]; 40 uM
  CMV-LACZ in Myoblasts (β-galactosidase activity relative to DMSO): 0.7030
[4]; 0.5 uM
  CMV-LACZ in Myotubes, signal relative to DMSO: 1.1000
[4]; 1 uM
  CMV-LACZ in Myotubes, signal relative to DMSO: 1.7389
[4]; 5 uM
  CMV-LACZ in Myotubes, signal relative to DMSO: 0.9578
[4]; 10 uM
  CMV-LACZ in Myotubes, signal relative to DMSO: 1.0965
[4]; 20 uM
  CMV-LACZ in Myotubes, signal relative to DMSO: 1.0578
[4]; 40 uM
  CMV-LACZ in Myotubes, signal relative to DMSO: 1.1344

## CCc1nc2ccccc2c(C(=O)NCc2ccccc2)c1C [MLS000688267-01]
[1]; 0.5 uM
  Burkin Assay in Myoblasts, signal relative to DMSO: 1.092
[1]; 1 uM
  Burkin Assay in Myoblasts, signal relative to DMSO: 1.104
[1]; 5 uM
  Burkin Assay in Myoblasts, signal relative to DMSO: 1.358
[1]; 10 uM
  Burkin Assay in Myoblasts, signal relative to DMSO: 0.9133
[1]; 20 uM
  Burkin Assay in Myoblasts, signal relative to DMSO: 1.0466
[1]; 40 uM
  Burkin Assay in Myoblasts, signal relative to DMSO: 1.107
[2]; 0.5 uM
  Burkin Assay in Myotubes, α7 integrin LacZ reporter signal relative to DMSO: 0.9011
[2]; 1 uM
  Burkin Assay in Myotubes, α7 integrin LacZ reporter signal relative to DMSO: 0.8373
[2]; 5 uM
  Burkin Assay in Myotubes, α7 integrin LacZ reporter signal relative to DMSO: 1.132
[2]; 10 uM
  Burkin Assay in Myotubes, α7 integrin LacZ reporter signal relative to DMSO: 1.101
[2]; 20 uM
  Burkin Assay in Myotubes, α7 integrin LacZ reporter signal relative to DMSO: 0.8808
[2]; 40 uM
  Burkin Assay in Myotubes, α7 integrin LacZ reporter signal relative to DMSO: 1.131
[3]; 0.5 uM
  CMV-LACZ in Myoblasts (β-galactosidase activity relative to DMSO): 1.0950
[3]; 1 uM
  CMV-LACZ in Myoblasts (β-galactosidase activity relative to DMSO): 1.1579
[3]; 5 uM
  CMV-LACZ in Myoblasts (β-galactosidase activity relative to DMSO): 0.9129
[3]; 10 uM
  CMV-LACZ in Myoblasts (β-galactosidase activity relative to DMSO): 0.8935
[3]; 20 uM
  CMV-LACZ in Myoblasts (β-galactosidase activity relative to DMSO): 1.1407
[3]; 40 uM
  CMV-LACZ in Myoblasts (β-galactosidase activity relative to DMSO): 1.0774
[4]; 0.5 uM
  CMV-LACZ in Myotubes, signal relative to DMSO: 0.8648
[4]; 1 uM
  CMV-LACZ in Myotubes, signal relative to DMSO: 1.1333
[4]; 5 uM
  CMV-LACZ in Myotubes, signal relative to DMSO: 0.9634
[4]; 10 uM
  CMV-LACZ in Myotubes, signal relative to DMSO: 1.2248
[4]; 20 uM
  CMV-LACZ in Myotubes, signal relative to DMSO: 0.9505
[4]; 40 uM
  CMV-LACZ in Myotubes, signal relative to DMSO: 1.1505

## N#Cc1ccc(Sc2nc3ccccc3[nH]2)cc1C#N [MLS000110418-01]
[1]; 0.5 uM
  Burkin Assay in Myoblasts, signal relative to DMSO: 1.3095
[1]; 1 uM
  Burkin Assay in Myoblasts, signal relative to DMSO: 1.079
[1]; 5 uM
  Burkin Assay in Myoblasts, signal relative to DMSO: 1.249
[1]; 10 uM
  Burkin Assay in Myoblasts, signal relative to DMSO: 1.12
[1]; 20 uM
  Burkin Assay in Myoblasts, signal relative to DMSO: 1.004
[1]; 40 uM
  Burkin Assay in Myoblasts, signal relative to DMSO: 0.8889
[2]; 0.5 uM
  Burkin Assay in Myotubes, α7 integrin LacZ reporter signal relative to DMSO: 1.073
[2]; 1 uM
  Burkin Assay in Myotubes, α7 integrin LacZ reporter signal relative to DMSO: 1.0975
[2]; 5 uM
  Burkin Assay in Myotubes, α7 integrin LacZ reporter signal relative to DMSO: 1.017
[2]; 10 uM
  Burkin Assay in Myotubes, α7 integrin LacZ reporter signal relative to DMSO: 0.943
[2]; 20 uM
  Burkin Assay in Myotubes, α7 integrin LacZ reporter signal relative to DMSO: 0.9939
[2]; 40 uM
  Burkin Assay in Myotubes, α7 integrin LacZ reporter signal relative to DMSO: 0.8855
[3]; 0.5 uM
  CMV-LACZ in Myoblasts (β-galactosidase activity relative to DMSO): 0.8871
[3]; 1 uM
  CMV-LACZ in Myoblasts (β-galactosidase activity relative to DMSO): 0.9989
[3]; 5 uM
  CMV-LACZ in Myoblasts (β-galactosidase activity relative to DMSO): 1.0913
[3]; 10 uM
  CMV-LACZ in Myoblasts (β-galactosidase activity relative to DMSO): 0.9455
[3]; 20 uM
  CMV-LACZ in Myoblasts (β-galactosidase activity relative to DMSO): 0.8926
[3]; 40 uM
  CMV-LACZ in Myoblasts (β-galactosidase activity relative to DMSO): 0.7141
[4]; 0.5 uM
  CMV-LACZ in Myotubes, signal relative to DMSO: 1.0333
[4]; 1 uM
  CMV-LACZ in Myotubes, signal relative to DMSO: 0.9000
[4]; 5 uM
  CMV-LACZ in Myotubes, signal relative to DMSO: 0.9617
[4]; 10 uM
  CMV-LACZ in Myotubes, signal relative to DMSO: 0.9599
[4]; 20 uM
  CMV-LACZ in Myotubes, signal relative to DMSO: 1.0459
[4]; 40 uM
  CMV-LACZ in Myotubes, signal relative to DMSO: 1.3647

## COc1cccc(CN2CCN(Cc3ccco3)CC2)c1.O=C(O)C(=O)O [MLS001211139-01]
[1]; 0.5 uM
  Burkin Assay in Myoblasts, signal relative to DMSO: 1.2392
[1]; 1 uM
  Burkin Assay in Myoblasts, signal relative to DMSO: 1.136
[1]; 5 uM
  Burkin Assay in Myoblasts, signal relative to DMSO: 1.065
[1]; 10 uM
  Burkin Assay in Myoblasts, signal relative to DMSO: 0.9683
[1]; 20 uM
  Burkin Assay in Myoblasts, signal relative to DMSO: 1.218
[1]; 40 uM
  Burkin Assay in Myoblasts, signal relative to DMSO: 1.216
[2]; 0.5 uM
  Burkin Assay in Myotubes, α7 integrin LacZ reporter signal relative to DMSO: 1.167
[2]; 1 uM
  Burkin Assay in Myotubes, α7 integrin LacZ reporter signal relative to DMSO: 1.288
[2]; 5 uM
  Burkin Assay in Myotubes, α7 integrin LacZ reporter signal relative to DMSO: 1.003
[2]; 10 uM
  Burkin Assay in Myotubes, α7 integrin LacZ reporter signal relative to DMSO: 0.9425
[2]; 20 uM
  Burkin Assay in Myotubes, α7 integrin LacZ reporter signal relative to DMSO: 0.8283
[2]; 40 uM
  Burkin Assay in Myotubes, α7 integrin LacZ reporter signal relative to DMSO: 0.7547
[3]; 0.5 uM
  CMV-LACZ in Myoblasts (β-galactosidase activity relative to DMSO): 0.9691
[3]; 1 uM
  CMV-LACZ in Myoblasts (β-galactosidase activity relative to DMSO): 0.7347
[3]; 5 uM
  CMV-LACZ in Myoblasts (β-galactosidase activity relative to DMSO): 0.9500
[3]; 10 uM
  CMV-LACZ in Myoblasts (β-galactosidase activity relative to DMSO): 0.8608
[3]; 20 uM
  CMV-LACZ in Myoblasts (β-galactosidase activity relative to DMSO): 1.0659
[3]; 40 uM
  CMV-LACZ in Myoblasts (β-galactosidase activity relative to DMSO): 0.8744
[4]; 0.5 uM
  CMV-LACZ in Myotubes, signal relative to DMSO: 0.9281
[4]; 1 uM
  CMV-LACZ in Myotubes, signal relative to DMSO: 0.8948
[4]; 5 uM
  CMV-LACZ in Myotubes, signal relative to DMSO: 1.1755
[4]; 10 uM
  CMV-LACZ in Myotubes, signal relative to DMSO: 1.0196
[4]; 20 uM
  CMV-LACZ in Myotubes, signal relative to DMSO: 0.8259
[4]; 40 uM
  CMV-LACZ in Myotubes, signal relative to DMSO: 1.0224

## CCN(CC)C(=O)c1sc2nc(-c3ccc(OC)cc3)cn2c1C [MLS000089464-01]
[1]; 0.5 uM
  Burkin Assay in Myoblasts, signal relative to DMSO: 0.9965
[1]; 1 uM
  Burkin Assay in Myoblasts, signal relative to DMSO: 0.9802
[1]; 5 uM
  Burkin Assay in Myoblasts, signal relative to DMSO: 0.934
[1]; 10 uM
  Burkin Assay in Myoblasts, signal relative to DMSO: 0.7825
[1]; 20 uM
  Burkin Assay in Myoblasts, signal relative to DMSO: 0.5631
[1]; 40 uM
  Burkin Assay in Myoblasts, signal relative to DMSO: 0.3911
[2]; 0.5 uM
  Burkin Assay in Myotubes, α7 integrin LacZ reporter signal relative to DMSO: 1.063
[2]; 1 uM
  Burkin Assay in Myotubes, α7 integrin LacZ reporter signal relative to DMSO: 1.029
[2]; 5 uM
  Burkin Assay in Myotubes, α7 integrin LacZ reporter signal relative to DMSO: 1.128
[2]; 10 uM
  Burkin Assay in Myotubes, α7 integrin LacZ reporter signal relative to DMSO: 0.9917
[2]; 20 uM
  Burkin Assay in Myotubes, α7 integrin LacZ reporter signal relative to DMSO: 0.9545
[2]; 40 uM
  Burkin Assay in Myotubes, α7 integrin LacZ reporter signal relative to DMSO: 0.8373
[3]; 0.5 uM
  CMV-LACZ in Myoblasts (β-galactosidase activity relative to DMSO): 0.9117
[3]; 1 uM
  CMV-LACZ in Myoblasts (β-galactosidase activity relative to DMSO): 0.9160
[3]; 5 uM
  CMV-LACZ in Myoblasts (β-galactosidase activity relative to DMSO): 0.9372
[3]; 10 uM
  CMV-LACZ in Myoblasts (β-galactosidase activity relative to DMSO): 1.1969
[3]; 20 uM
  CMV-LACZ in Myoblasts (β-galactosidase activity relative to DMSO): 0.7500
[3]; 40 uM
  CMV-LACZ in Myoblasts (β-galactosidase activity relative to DMSO): 0.5274
[4]; 0.5 uM
  CMV-LACZ in Myotubes, signal relative to DMSO: 0.9716
[4]; 1 uM
  CMV-LACZ in Myotubes, signal relative to DMSO: 1.3716
[4]; 5 uM
  CMV-LACZ in Myotubes, signal relative to DMSO: 0.9400
[4]; 10 uM
  CMV-LACZ in Myotubes, signal relative to DMSO: 0.9529
[4]; 20 uM
  CMV-LACZ in Myotubes, signal relative to DMSO: 1.3067
[4]; 40 uM
  CMV-LACZ in Myotubes, signal relative to DMSO: 1.0178
